Assay results as given in patent US20260356834A1, “ANTICONVULSIVE COMPOUNDS AND USES THEREOF” (Jazz Pharmaceuticals Research UK Limite, priority 2023, published 2026).
Where “and” joins values, the source holds several entries; their conditions need not be identical. Identical values can stand only once. Marks after values point to notes of the source that are not given here.

System: C57BL/6J mice
Assay: mouse maximal electroshock seizure threshold model (MEST)
Assay type: in vivo
Procedure: Vehicle=1:2:17 ethanol:Solutol® (Kolliphor® HS 15):saline: 1 mL of ethanol and 2 mL of solutol were warmed to 60 °C and 17 mL of 0.9% saline was added slowly. […]
Vehicle=0.5% HPMC and 0.1% Tween 80:0.5% HPMC and 0.1% Tween 80 in water.

[1] = 10 mg/kg p.o., 30 min, HPMC vehicle
[2] = 10 mg/kg p.o., 30 min, vs HPMC vehicle
[3] = 50 mg/kg p.o., 30 min, HPMC vehicle

| Structure (SMILES) | CC50 +/− SEM (1 mg/kg i.p., 15 min, 1:2:17 ethanol:Solutol:saline) | Change from vehicle (CC50) (1 mg/kg i.p., 15 min, vs 1:2:17 ethanol:Solutol:saline vehicle) | CC50 +/− SEM (5 mg/kg i.p., 15 min, 1:2:17 ethanol:Solutol:saline) | Change from vehicle (CC50) (5 mg/kg i.p., 15 min, vs 1:2:17 ethanol:Solutol:saline vehicle) | CC50 +/− SEM [1] | Change from vehicle (CC50) [2] | CC50 +/− SEM (30 mg/kg i.p., 30 min, 1:2:17 ethanol:Solutol:saline) | Change from vehicle (CC50) (30 mg/kg i.p., 30 min, vs 1:2:17 ethanol:Solutol:saline vehicle) | CC50 +/− SEM [3] | Change from vehicle (CC50) (50 mg/kg p.o., 30 min, vs HPMC vehicle) | CC50 +/− SEM (60 mg/kg i.p., 30 min, 1:2:17 ethanol:Solutol:saline) | Change from vehicle (CC50) (60 mg/kg i.p., 30 min, vs 1:2:17 ethanol:Solutol:saline vehicle) | CC50 +/− SEM (5 mg/kg p.o., 15 min, HPMC vehicle) | Change from vehicle (CC50) (5 mg/kg p.o., 15 min, vs HPMC vehicle) | CC50 +/− SEM (25 mg/kg p.o., 15 min, HPMC vehicle) | Change from vehicle (CC50) (25 mg/kg p.o., 15 min, vs HPMC vehicle) | CC50 +/− SEM (25 mg/kg p.o., 30 min, HPMC vehicle) | Change from vehicle (CC50) (25 mg/kg p.o., 30 min, vs HPMC vehicle) | CC50 +/− SEM (100 mg/kg p.o., 30 min, HPMC vehicle) | Change from vehicle (CC50) (100 mg/kg p.o., 30 min, vs HPMC vehicle) |
| --- | --- | --- | --- | --- | --- | --- | --- | --- | --- | --- | --- | --- | --- | --- | --- | --- | --- | --- | --- | --- |
| CCCc1cc(O)c(-c2c(C)ccn3ccnc23)c(O)c1 [Compound 2, 2-(7-Methylimidazo[1,2-a]pyridin-8-yl)-5-propylbenzene-1,3-diol] | 26.0 ± 0.4 mA | 11%^### | 29.4 ± 0.9 mA | 26%^### | 27.0 ± 0.7 mA | 17%*** | 38.2 ± 1.5 mA | 64%^### | 38.2 ± 0.5 mA | 66%*** | 59.5 ± 2.6 mA | 155%^### |  |  |  |  |  |  |  |  |
| CCCc1cc(O)c(-c2c(C)c(Cl)cn3ccnc23)c(O)c1 [Compound 4, 2-(6-Chloro-7-methylimidazo[1,2-a]pyridin-8-yl)-5-propylbenzene-1,3-diol] |  |  |  |  | 22.5 ± 0.3 mA | 14% |  |  | 92.5 ± 3.2 mA and 125.0 ± 33.4 mA |  |  |  | 23.5 ± 2.1 mA | 11% | 27.5 ± 1.3 mA | 32%** | 60.8 ± 2.9 mA | 132%*** | 200.0 ± 3.7 mA | 860%*** |
